Data as given in patent US9526717B2, “Composition for treating immune diseases containing daurinol compound as active ingredient” (THE CATHOLIC UNIVERSITY OF KOREA INDUSTRY-ACADEMIC …, priority 2013, dated 2016).

Experiments:
[1] = tested on: mouse model with collagen induced arthritis (CIA); assay: Measurement of IgG, IgG1 and IgG2a in the serum of CIA mice by sandwich ELISA; assay type: in vivo
[2] = tested on: animal model with collagen induced arthritis (CIA); assay: Expression of inflammatory cytokines in joints of CIA animals (tissue staining); assay type: in vivo, mouse; details: injected intravenously, three weeks after
[3] = tested on: splenocytes of an animal model with obesity-derived rheumatoid arthritis; assay: IL-17 ELISA in splenocytes of animal model with obesity arthritis; assay type: cell-based; details: daurinol 1 μM and 5 μM, anti-CD3 0.5 μg/mL
Method: The splenocytes of an animal model with obesity-derived rheumatoid arthritis were treated with daurinol (1 μM and 5 μM) and anti-CD3 (0.5 μg/mL), and IL-17, the inflammatory cytokine expressed thereafter, was evaluated via ELISA assay.

[4] = tested on: splenocytes of an animal model with obesity arthritis; assay: Th17/Treg activity by flow cytometry in splenocytes of animal model with obesity arthritis; assay type: cell-based; details: daurinol 1 μM, anti-CD3 0.5 μg/mL, 3 days
Method: Additionally, for the confirmation of controlling the activity of Th17/Treg cells, the splenocytes of an animal model with obesity arthritis were treated with daurinol (1 μM) and anti-CD3 (0.5 μg/mL) and cultured for 3 days, and the activity of Th17/Treg cells controlled by daurinol were evaluated via flow cytometry.

splenocyte cell line = assay: IL-17 secretion of anti-CD3 treated splenocyte cell line (sandwich ELISA); assay type: cell-based; details: anti-CD3 antibodies 0.5 μg/mL
Method: For this purpose, a splenocyte cell line was treated with anti-CD3 antibodies (0.5 μg/mL) to induce the secretion of IL-17, or treated with LPS (100 ng/mL) to induce the secretion of TNF-α. […] The resultant was reacted in a 96-well plate with monoclonal anti-IL-17 or anti-TNF-α (2 μg/mL) at 4° C. overnight, and upon reaction, the non-specific binding was blocked using a blocking solution (1% BSA/PBST). IL-17 recombinant or TNF-α in a half amount was continuously diluted and used as standards, and the supernatant of cell culture was reacted at room temperature for 2 hours. Then, the biotinylated anti-IL-17 was reacted at room temperature for 2 hours, washed 4 times, and added with ExtraAvidin-alkaline phosphatase conjugate after dilution, and reacted at room temperature for 2 hours. Subsequently, PNPP/DEA solution was added thereto to fix color and absorbance was measured at 405 nm.

splenocytes cell line = assay: MTT assay for cytotoxicity; assay type: cell-based; details: splenocytes cell line 2×10^5 cells, 96-well plate
Method: Additionally, MTT assay was performed for the observation of cytotoxicity by daurinol treatment. To this end, splenocytes cell line (2×10^5 cells) were plated on a 96-well plate, and daurinol was treated with MTT reagent and wrapped with aluminum foil, and reacted at 37° C. for 4 hours. After 4 hours, the crystals formed were dissolved in DMSO and the absorbance was measured using the ELISA reader.

[5] = tested on: phospho STAT3 (p705, p′727); assay: Western blot of phospho STAT3 in CD4+T cells; assay type: cell-based; details: CD4+T cells of normal mouse, daurinol 5 μM, anti-CD3 0.5 μg/mL, 3 days
Method: For the observation of changes in intracellular cell signaling factors treated with daurinol, a western blot analysis was performed. For this purpose, CD4+T cells were isolated from a normal mouse, treated with daurinol (5 μM) in a condition already treated with anti-CD3 antibodies (0.5 μg/mL), cultured for 3 days, and the cells were dissolved and proteins were extracted therefrom. Then, the extracted proteins were subjected to SDS-PAGE electrophoresis, and the proteins were electrically transferred onto a nitrocellulose membrane, subjected to a blocking reaction with 5% skim milk for 1 hour, reacted by attaching primary antibodies to STAT3, STAT3p705, STAT3p727, and phospho m-TOR thereto, reacting again by attaching secondary antibodies to the same, and sensitized onto a Kodak X-ray using enhanced chemilunimoecence (ECL), and thereby the protein expression levels of the genes were analyzed.

CD4+ T cells = assay: IL-17 expression in allogenic reaction in vitro; assay type: cell-based, mouse; details: daurinol 0.5, 2, 10 and 20 μM
Method: For the confirmation of the effect of the daurinol compound on the inhibition of T cell proliferation and the expression amount of IL-17, the CD4+ T cells (2×10^5 cells) of a normal recipient (Balb/c, responder), and the T cell-removed splenocytes (2×10^5 cells) derived from a recipient (homogenic) or the splenocytes (2×10^5 cells) derived from a donor (C57BL/6, stimulator, allogenic) exposed to irradiation were added to each well of a 96-well round bottom plate, mixed, and cultured in vitro. In particular, the T cell proliferation and the secretion of IL-17 when an allogenic reaction was untreated with daurinol or treated with daurinol at 0.5 μM, 2 μM, 10 μM, and 20 μM, respectively, were observed.

[6] = tested on: animal model with inflammatory bowel disease; assay: Expression of inflammatory cytokines in the tissues of the large intestine of IBD model; assay type: in vivo, mouse; details: daurinol treated
Description: For the confirmation of the effect of the daurinol compound of the present invention on the treatment of inflammatory bowel disease, the present inventors first constructed an animal model with induced inflammatory bowel disease. For the experimental model, C57BL/6(H-2kb) mice were used. For the construction of an animal model with induced inflammatory bowel disease, the mice were fed with 3.5% dextran sulfate sodium (DSS) and water for a week, thereby preparing an animal model with induced inflammatory bowel disease. The present inventors divided the experimental animals into a normal control group, a group of an animal model with induced inflammatory bowel disease, and a group of an animal model with induced inflammatory bowel disease treated with daurinol or a TNF-α inhibitor, and the group treated with daurinol was administered orally and intrarectally with daurinol (20 mg/kg) from the 4th day after the induction with the disease.

[7] = tested on: splenocytes of the animal model with lupus; assay: TNF-α level in splenocytes of animal model with lupus (ELISA); assay type: cell-based; details: daurinol 1 μM and 5 μM, anti-CD3 0.5 μg/mL or LPS 100 ng/mL, three days
Method: Additionally, for the confirmation of the effect of controlling the formation of inflammatory cytokines, the splenocytes of the animal model with lupus were treated with daurinol (1 μM and 5 μM) and anti-CD3 (0.5 μg/mL) or LPS (100 ng/mL) for three days and the levels of IL-17 and TNF-α inflammatory cytokines were evaluated by ELISA assay.

[8] = tested on: splenocytes of an animal model with lupus; assay: Th17/Treg activity by flow cytometry in splenocytes of animal model with lupus; assay type: cell-based; details: daurinol 1 μM, anti-CD3 0.5 μg/mL, three days
Method: Finally, for the confirmation of the controlling the activity of Th17/Treg cells, the splenocytes of an animal model with lupus were culture for three days after treating with daurinol (1 μM) and anti-CD3 (0.5 μg/mL), and the activity of Th17/Treg cells being controlled by daurinol was evaluated by flow cytometry.

[9] = arthritis animals, daurinol administration

Structure (SMILES): COc1cc2c(-c3ccc4c(c3)OCO4)c3c(cc2cc1O)COC3=O [daurinol]
- expression of IgG in the serum ([1]; CIA mouse, three weeks after daurinol injection, 20 mg/kg i.v.): effectively reduced
- IgG1 in the serum [1, 9]: significant decrease
- IgG2a in the serum [1, 9]: significant decrease
- expression level of IL-1beta in joints [2]: significantly reduced
- expression level of IL-6 in joints [2]: significantly reduced
- expression level of IL-17 in joints [2]: significantly reduced
- expression level of TNF-α in joints [2]: significantly reduced
- expression of IL-17 (ELISA) [3]: inhibits the expression of IL-17 in a dose-dependent manner
- activity of Foxp3+ Treg cells (flow cytometry) [4]: induced the activity of Foxp3+ Treg cells
- expression of IL-17 (Th17, flow cytometry) [4]: significantly inhibited the expression of IL-17
- secretion of IL-17 decreased to (splenocyte cell line; 2 μM daurinol): 50%
- secretion of IL-17 (splenocyte cell line; 20 μM daurinol): no secretion was observed
- cytotoxicity according to the concentration of daurinol (MTT) (splenocytes cell line): no significant cytotoxicity
- expression of phospho STAT3 (p705, p′727) [5]: significant decrease
- expression of IL-17 (CD4+ T cells): inhibited the expression of IL-17
- expression of IL-1b in the tissues of the large intestine [6]: significantly inhibit
- expression of IL-6 in the tissues of the large intestine [6]: significantly inhibit
- expression of IL-8 in the tissues of the large intestine [6]: significantly inhibit
- expression of IL-17 in the tissues of the large intestine [6]: significantly inhibit
- expression of TNF-α in the tissues of the large intestine [6]: significantly inhibit
- expression of TNF-α (ELISA) [7]: inhibited the expression of IL-17 and TNF-α in a dose-dependent manner
- Th17 activity (flow cytometry) [8]: inhibit the Th17 activity
- activity of Foxp3+ Treg cells (flow cytometry) [8]: induce the activity of Foxp3+ Treg cells
